IC50 data for 25 compounds are collected here from patent US11739070B2, “C5A receptor modulators” (IDORSIA PHARMACEUTICALS LTD, priority 2018, dated 2023).

As usually defined, the IC50 is the concentration that inhibits the measured activity by half.

The target in the assay is T1, C5AR1 (Homo sapiens, UniProt P21730).
T1 construct: host or cells: CHO-K1
T1 sequence (P21730 1-350): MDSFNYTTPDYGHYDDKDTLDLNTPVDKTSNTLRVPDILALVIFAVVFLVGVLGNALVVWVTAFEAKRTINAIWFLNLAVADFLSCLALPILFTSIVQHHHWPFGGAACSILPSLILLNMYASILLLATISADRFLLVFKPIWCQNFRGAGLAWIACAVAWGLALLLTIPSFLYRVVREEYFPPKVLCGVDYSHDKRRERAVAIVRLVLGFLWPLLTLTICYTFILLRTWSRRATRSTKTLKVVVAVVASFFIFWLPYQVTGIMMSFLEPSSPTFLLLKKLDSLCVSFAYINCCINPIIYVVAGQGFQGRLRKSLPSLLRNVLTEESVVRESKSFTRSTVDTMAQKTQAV
Nature of the assay: hC5a DISCO IC50 assay (PathHunter beta-arrestin, antagonist mode). The format is cell-based. Particulars: CHO-K1 C5AR1 beta-arrestin cell line; antagonist vs 1-10 nM C5a agonist; geometric mean values; read-out: C5aR IC50. The protocol:
II. Biological Assays In Vitro Assay hC5a DISCO IC50 Assay
5 μl Antagonist at 6-fold end concentration or DMSO control is added to assay medium and subsequently 5 μl 1-10 nM C5a agonist at 6 fold end concentration. Cells are centrifuged for 1 min at 1000 rpm and incubated for 1.5 hour in at 37° C. Plates are equilibrated at room temperature for several minutes before adding 12 μl/well Detection Reagent (PathHunter Detection Kit, DiscoverX, Cat #93-0001). Plates are centrifuged for 1 min at 1000 rpm and incubated for 45 minutes at RT before being measured on a Fluostar Optima, BMG Labtech. IC50 values are calculated from a serial dilution range of antagonist using inhouse software and given in nmol/l.
The calculated IC50 values may fluctuate depending on the daily cellular assay performance. Fluctuations of this kind are known to those skilled in the art. Average IC50 values from several measurements are given as geometric mean values.
As for `COc1cccc2c1n(Cc1cccnc1C(F)(F)F)c(=O)n2C1CCN(c2c(C)cccc2C)CC1` [Example 54, 1-[1-(2,6-Dimethyl-phenyl)-piperidin-4-yl]-4-methoxy-3-(2-trifluoromethyl-pyridin-3-ylmethyl)-1,3-dihydro-benzoimidazol-2-one], the IC50 was 43 nM.

As for `COc1cccc2c1n(Cc1nnccc1OC(C)C)c(=O)n2[C@@H]1CCN(c2c(C)cccc2F)C1` [Example 173, 1-[(R)-1-(2-Fluoro-6-methyl-phenyl)-pyrrolidin-3-yl]-3-(4-isopropoxy-pyridazin-3-ylmethyl)-4-methoxy-1,3-dihydro-benzoimidazol-2-one], the IC50 was determined as 107 nM.

`N#Cc1cccc(F)c1N1CC[C@@H](n2c(=O)n(Cc3ccccc3C(F)(F)F)c3c(CO)cccc32)C1` [Example 102, 3-Fluoro-2-{(R)-3-[4-hydroxymethyl-2-oxo-3-(2-trifluoromethyl-benzyl)-2,3-dihydro-benzoimidazol-1-yl]-pyrrolidin-1-yl}-benzonitrile]: the concentration for half-maximal inhibition (IC50) stood at 759 nM.

In the case of `Cc1cccc(F)c1N1CC[C@@H](n2c(=O)n(Cc3ccccc3C(F)(F)F)c3c(N(C)CCO)nccc32)C1` [Example 123, 1-[(R)-1-(2-Fluoro-6-methyl-phenyl)-pyrrolidin-3-yl]-4-[(2-hydroxy-ethyl)-methyl-amino]-3-(2-trifluoromethyl-benzyl)-1,3-dihydro-imidazo[4,5-c]pyridin-2-one], the IC50 was 42 nM.

On to `COc1cccc2c1n(Cc1ccccc1C(F)(F)F)c(=O)n2[C@@H]1CCN(c2c(F)cccc2CN2CCCC2)C1` [Example 116, 1-[(R)-1-(2-Fluoro-6-pyrrolidin-1-ylmethyl-phenyl)-pyrrolidin-3-yl]-4-methoxy-3-(2-trifluoromethyl-benzyl)-1,3-dihydro-benzoimidazol-2-one], for which the IC50 turned out to be 165 nM.

On to `COc1cccc(C)c1N1CC[C@@H](n2c(=O)n(Cc3ccccc3C(F)(F)F)c3c(=O)[nH]ccc32)C1` [Example 94, 1-[(R)-1-(2-Methoxy-6-methyl-phenyl)-pyrrolidin-3-yl]-3-(2-trifluoromethyl-benzyl)-3,5-dihydro-1H-imidazo[4,5-c]pyridine-2,4-dione], for which the concentration for half-maximal inhibition (IC50) worked out at 313 nM.

Take `COc1cccc2c1n(Cc1ccccc1C(F)(F)F)c(=O)n2[C@@H]1CCN(c2c(Cl)cnnc2Cl)C1` [Example 158, 1-[(R)-1-(3,5-Dichloro-pyridazin-4-yl)-pyrrolidin-3-yl]-4-methoxy-3-(2-trifluoromethyl-benzyl)-1,3-dihydro-benzoimidazol-2-one]: the concentration for half-maximal inhibition (IC50) worked out at 683 nM.

As for `COc1cccc2c1n(Cc1ccccc1C(F)(F)F)c(=O)n2C1CCN(c2ccccc2OCc2ccccc2)CC1` [Example 231, 1-[1-(2-Benzyloxy-phenyl)-piperidin-4-yl]-4-methoxy-3-(2-trifluoromethyl-benzyl)-1,3-dihydro-benzoimidazol-2-one], the concentration for half-maximal inhibition (IC50) is 66 nM.

For `CN(C)C(=O)c1cccc2c1n(Cc1ccccc1C(F)(F)F)c(=O)n2[C@@H]1CCN(c2c(F)cccc2C#N)C1` [Example 101, 1-[(R)-1-(2-Cyano-6-fluoro-phenyl)-pyrrolidin-3-yl]-2-oxo-3-(2-trifluoromethyl-benzyl)-2,3-dihydro-1H-benzoimidazole-4-carboxylic acid dimethylamide], the IC50 was 1580 nM.

For the compound `COc1cccc2c1n(Cc1cccnc1C(F)(F)F)c(=O)n2[C@@H]1CCN(c2c(C)cccc2F)C1` [Example 195, 1-[(R)-1-(2-Fluoro-6-methyl-phenyl)-pyrrolidin-3-yl]-4-methoxy-3-(2-trifluoromethyl-pyridin-3-ylmethyl)-1,3-dihydro-benzoimidazol-2-one], the IC50 was determined as 20 nM.

Turning to `COc1cccc2c1n(Cc1ccccc1C(F)(F)F)c(=O)n2[C@@H]1CCN(c2c(F)cccc2CCN2CCOCC2)C1` [Example 131, 1-{(R)-1-[2-Fluoro-6-(2-morpholin-4-yl-ethyl)-phenyl]-pyrrolidin-3-yl}-4-methoxy-3-(2-trifluoromethyl-benzyl)-1,3-dihydro-benzoimidazol-2-one], the 50% inhibitory concentration (IC50) was found to be 53 nM.

On to `COc1cccc2c1n(Cc1ccccc1C(F)(F)F)c(=O)n2[C@@H]1CCN(c2c(F)cccc2CCCN2CCOCC2)C1` [Example 162, 1-{(R)-1-[2-Fluoro-6-(3-morpholin-4-yl-propyl)-phenyl]-pyrrolidin-3-yl}-4-methoxy-3-(2-trifluoromethyl-benzyl)-1,3-dihydro-benzoimidazol-2-one], for which the half-inhibitory concentration (IC50) was 135 nM.

Regarding `COc1cccc2c1n(Cc1ncccc1C(F)(F)F)c(=O)n2C1CCN(c2c(F)cccc2F)CC1` [Example 76, 1-[1-(2,6-Difluoro-phenyl)-piperidin-4-yl]-4-methoxy-3-(3-trifluoromethyl-pyridin-2-ylmethyl)-1,3-dihydro-benzoimidazol-2-one], the half-maximal inhibitory concentration (IC50) amounted to 38 nM.

For `COc1cccc2c1n(Cc1cnccc1C(F)(F)F)c(=O)n2C1CCN(c2c(C)cccc2C)CC1` [Example 58, 1-[1-(2,6-Dimethyl-phenyl)-piperidin-4-yl]-4-methoxy-3-(4-trifluoromethyl-pyridin-3-ylmethyl)-1,3-dihydro-benzoimidazol-2-one], the half-maximal inhibitory concentration (IC50) was 25 nM.

Consider `CCCCOC(=O)N1CC[C@@H](n2c(=O)n(Cc3ccccc3C(F)(F)F)c3c(OC)cccc32)C1` [Example 62, (R)-3-[4-Methoxy-2-oxo-3-(2-trifluoromethyl-benzyl)-2,3-dihydro-benzoimidazol-1-yl]-pyrrolidine-1-carboxylic acid butyl ester], for which the 50% inhibitory concentration (IC50) worked out at 99 nM.

Regarding `COc1cccc2c1n(Cc1ccccc1C(F)(F)F)c(=O)n2[C@@H]1CCN(C(=O)OC(C)C)C1` [Example 61, (R)-3-[4-Methoxy-2-oxo-3-(2-trifluoromethyl-benzyl)-2,3-dihydro-benzoimidazol-1-yl]-pyrrolidine-1-carboxylic acid isopropyl ester], the IC50 is 65 nM.

Regarding `COc1ccnc2c1n(Cc1ccccc1C(F)(F)F)c(=O)n2[C@@H]1CCN(c2c(C)cccc2C)C1` [Example 45, 3-[(R)-1-(2,6-Dimethyl-phenyl)-pyrrolidin-3-yl]-7-methoxy-1-(2-trifluoromethyl-benzyl)-1,3-dihydro-imidazo[4,5-b]pyridin-2-one], the IC50 came to 16 nM.

On to `COc1cccc2c1n(Cc1sc(C)nc1C(F)(F)F)c(=O)n2[C@@H]1CCN(c2c(C)cccc2F)C1` [Example 221, 1-[(R)-1-(2-Fluoro-6-methyl-phenyl)-pyrrolidin-3-yl]-4-methoxy-3-(2-methyl-4-trifluoromethyl-thiazol-5-ylmethyl)-1,3-dihydro-benzoimidazol-2-one], for which the concentration for half-maximal inhibition (IC50) amounted to 175 nM.

`COc1cccc2c1n(Cc1ncccc1C(F)(F)F)c(=O)n2C1CCN(C(=O)OC(C)(C)C)CC1` [Example 64, 4-[4-Methoxy-2-oxo-3-(3-trifluoromethyl-pyridin-2-ylmethyl)-2,3-dihydro-benzoimidazol-1-yl]-piperidine-1-carboxylic acid tert-butyl ester]: the half-maximal inhibitory concentration (IC50) was 2920 nM.

Turning to `COc1cccc2c1n(Cc1ccccc1OC(C)C)c(=O)n2C1CCN(c2c(C)cccc2F)CC1` [Example 166, 1-[1-(2-Fluoro-6-methyl-phenyl)-piperidin-4-yl]-3-(2-isopropoxy-benzyl)-4-methoxy-1,3-dihydro-benzoimidazol-2-one], the IC50 was determined as 17 nM.

On to `COc1ccccc1Cn1c(=O)n([C@@H]2CCN(C(=O)OC(C)(C)C)C2)c2cccc(OC)c21` [Example 65, (R)-3-[4-Methoxy-3-(2-methoxy-benzyl)-2-oxo-2,3-dihydro-benzoimidazol-1-yl]-pyrrolidine-1-carboxylic acid tert-butyl ester], for which the IC50 was found to be 396 nM.

In the case of `COc1ccnc2c1n(Cc1ccccc1C(F)(F)F)c(=O)n2[C@@H]1CCN(c2c(F)cccc2F)C1` [Example 46, 3-[(R)-1-(2,6-Difluoro-phenyl)-pyrrolidin-3-yl]-7-methoxy-1-(2-trifluoromethyl-benzyl)-1,3-dihydro-imidazo[4,5-b]pyridin-2-one], the concentration for half-maximal inhibition (IC50) is 39 nM.

As to `[2H]c1ccc(OC)c2c1n(C1CCN(c3c(C)cccc3C)CC1)c(=O)n2Cc1ccccc1C(F)(F)F` [Example 3, 1-(1-(2,6-dimethylphenyl)piperidin-4-yl)-4-methoxy-3-(2-(trifluoromethyl)benzyl)-1,3-dihydro-benzoimidazol-2-one-7-d], the half-inhibitory concentration (IC50) worked out at 23 nM.

On to `Cc1cccc(F)c1N1CC[C@@H](n2c(=O)n(Cc3ccccc3C(F)(F)F)c3c(N4CCOCC4)nccc32)C1` [Example 129, 1-[(R)-1-(2-Fluoro-6-methyl-phenyl)-pyrrolidin-3-yl]-4-morpholin-4-yl-3-(2-trifluoromethyl-benzyl)-1,3-dihydro-imidazo[4,5-c]pyridin-2-one], for which the IC50 stood at 53 nM.

Regarding `COc1cccc2c1n(Cc1ccccc1C(F)(F)F)c(=O)n2[C@@H]1CCN(c2c(C=O)c(C)nn2C)C1` [Example 71, 5-{(R)-3-[4-Methoxy-2-oxo-3-(2-trifluoromethyl-benzyl)-2,3-dihydro-benzoimidazol-1-yl]-pyrrolidin-1-yl}-1,3-dimethyl-1H-pyrazole-4-carbaldehyde], the IC50 is 133 nM.
